Results on 18 compounds are retold here after patent US11247993B2, “Pyridone derivative, composition and use as antiviral drug thereof” (priority 2018, dated 2022).

Usually CC50 stands for the concentration giving 50% cytotoxicity. As a reminder, the AUC(0-t) is exposure summed from dosing to a finite time, without extrapolation to infinity. Read a low AUC(0-t) as less exposure. A word on the Vd: it is a proportionality between amount in the body and measured concentration, not a real space. The low end stands for confinement near the circulation, the high end for extensive tissue distribution. As a reminder, the clearance is a measure of how efficiently the substance is removed, as volume per time. Low values mean a low capacity for elimination, high ones a high capacity for elimination. Usually half-life stands for how long it takes for the measured level to halve. A low value points to rapid decline. By EC50 is commonly meant the midpoint of the concentration-response curve.

Structures are written as SMILES.

In one data set the test system is influenza A virus (H1N1, A/WSN/33). The data set can be described thus: Efficacy on mice, IAV mouse infection model. The format is in vivo, Female BALB/c mice. The following applies: infected mice, 15 mpk orally twice a day, during the experiment. The text has this: Female BALB/c mice were inoculated with influenza A virus (H1N1, A/WSN/33) by intranasal administration to establish an IAV mouse infection model. The vehicle, Compound III-2 (15 mpk) or oseltamivir phosphate (15 mpk) were orally administered twice a day. Animal weight and survival status were monitored daily during the test, and on the 5th day, some animals were killed to take lung tissue for virus titer detection, and the remaining mice were used for survival rate monitoring. The in vivo anti-influenza virus efficacy of the test compound was determined by virus titer in lung tissue, mouse body weight change and survival rate.
As to `CCOC(=O)C1=C[C@@H](OC(CC)CC)[C@H](NC(C)=O)[C@@H](N)C1` [Oseltamivir phosphate, oseltamivir phosphate, reference compound], the Body weight change entry is given as “remained stable”.

The same data set, now with this note: infected mice, 15 mpk orally twice a day, to the predetermined experimental end point.
For `CCOC(=O)C1=C[C@@H](OC(CC)CC)[C@H](NC(C)=O)[C@@H](N)C1` [Oseltamivir phosphate, oseltamivir phosphate, reference compound], the Survival rate was found to be 100%.

The data set is the same for the next values; noted with them: mice, 15 mpk orally twice a day, 5th day after infection.
On to `CCOC(=O)C1=C[C@@H](OC(CC)CC)[C@H](NC(C)=O)[C@@H](N)C1` [Oseltamivir phosphate, oseltamivir phosphate, reference compound], for which the “Mean difference of virus titer compared with the solvent group” value is on record as 3.46 Log 10 (number of plaques per gram of lung tissue).

Staying with this data set, now noted: mice, 15 mpk orally twice a day, 5th day after infection; 15 mg/kg.
Turning to `CCOC(=O)C1=C[C@@H](OC(CC)CC)[C@H](NC(C)=O)[C@@H](N)C1` [Oseltamivir phosphate, oseltamivir phosphate, reference compound], the “Influenza Virus Titer in lung tissue” value is recorded as 3.74 ± 0.5205 Log10 (plaques number/gram of.

The same data set, now with this note: mice, 15 mpk orally twice a day, 5th day after infection; listed as oseltamivir phosphate, 15 mg/kg.
As for `CCOC(=O)C1=C[C@@H](OC(CC)CC)[C@H](NC(C)=O)[C@@H](N)C1` [Oseltamivir phosphate, oseltamivir phosphate, reference compound], the “Influenza Virus Titer in lung tissue” value was 3.74 Log10 (plaques number/gram of.

Tested on in another data set: not listed separately
The data set can be described thus: in vitro. The format is cell-based. The following applies: dog. The method, then: Method for cytotoxicity study: The cytotoxicity assay and antiviral activity assay of the compounds were performed in parallel, except for the absence of virus, other experimental conditions were consistent with the antiviral activity assay. After 5 days of culture, the cell viability was measured using the cell viability detection kit CCK8. Raw data were used for calculating compound cytotoxicity (CC50) (see Table 1 for results).
In turn, `O=C1C2N(CC3CCCN13)C(=O)c1c(O)c(=O)ccn1N2[C@@H]1c2ccccc2SCc2c1ccc(F)c2F` (stereo partly shown) [II-101] displayed a CC50 at 5 days of over 1000 nM.
The compound `O=C1c2c(O)c(=O)ccn2N([C@@H]2c3ccccc3SCc3c2ccc(F)c3F)CN1C1C2CC1C2F` (stereo partly shown) [Compound I-66] came in with a CC50 at 5 days of over 1000 nM.
Still for that read-out and setting: the same measure for `O=C1c2c(O)c(=O)ccn2N([C@@H]2c3ccccc3SCc3c(F)cccc32)[C@@H]2COCC3(CC3)N12` [II-9]: over 1000 nM.
Turning to `O=C1c2c(O)c(=O)ccn2N([C@H]2c3ccccc3CSc3ccccc32)CN1C1CC2(CC2)C1` [Compound I-9], the CC50 at 5 days is over 1000 nM.
On the same count and under the same terms, then `C=C1CCN2C(=O)c3c(O)c(=O)ccn3N([C@@H]3c4ccccc4SCc4c3ccc(F)c4F)[C@@H]2C1` [II-65], with over 1000 nM; and `O=C1c2c(O)c(=O)ccn2N([C@@H]2c3ccccc3SCc3c2ccc(F)c3F)[C@@H]2COC3(CC3)CN12` [II-6], with over 1000 nM; and `O=C1c2c(O)c(=O)ccn2N([C@@H]2c3ccccc3SCc3cccc(Cl)c32)CN1C12CC(C1)C2` [Compound I-89], with over 1000 nM.
`O=C1c2c(O)c(=O)ccn2N([C@@H]2c3ccccc3SCc3c2ccc(F)c3F)CN1C1CC2(CC2)C1` [Compound I-14] gave a CC50 at 5 days of over 1000 nM.
As to `O=C1c2c(O)c(=O)ccn2N([C@@H]2c3ccccc3SCc3c2ccc(F)c3F)[C@@H]2C/C(=C/F)CCN12` [II-67], the CC50 at 5 days was over 1000 nM.
Regarding `O=C1c2c(O)c(=O)ccn2N([C@H]2c3ccccc3CSc3ccccc32)[C@@H]2COCC3(CC3)N12` [II-1], the CC50 at 5 days is over 1000 nM.
For `O=C1c2c(O)c(=O)ccn2N([C@@H]2c3ccccc3SCc3cccc(F)c32)[C@@H]2COCC3(CC3)N12` [II-17], the CC50 at 5 days is over 1000 nM.
`O=C1c2c(O)c(=O)ccn2N([C@@H]2c3ccccc3SCc3c2ccc(F)c3F)CN1CCSC1CC1` [Compound I-8] came in with a half-maximal cytotoxic concentration (CC50) at 5 days of over 1000 nM.
The compound `O=C1c2c(O)c(=O)ccn2N([C@@H]2c3ccccc3SCc3c(F)cccc32)[C@@H]2COC3(CC3)CN12` [II-10] yielded a CC50 at 5 days of over 1000 nM.
As for `O=C1c2c(O)c(=O)ccn2N([C@@H]2c3ccccc3SCc3c2ccc(F)c3F)CN1C1C2CC1C2` (stereo partly shown) [Compound I-65], the CC50 at 5 days was over 1000 nM.
Still for that read-out and setting: the same measure for `COCC1COC[C@@H]2N1C(=O)c1c(O)c(=O)ccn1N2[C@@H]1c2ccccc2SCc2c1ccc(F)c2F` (stereo partly shown) [II-8]: over 1000 nM; for `O=C1c2c(O)c(=O)ccn2N([C@H]2c3ccccc3CSc3ccccc32)CN1C1CC2(CCC2)C1` [Compound I-1]: over 1000 nM.
With `O=C1c2c(O)c(=O)ccn2N([C@@H]2c3ccccc3SCc3c2ccc(F)c3F)CN1C1CC2(CCC2)C1` [Compound I-5], the CC50 at 5 days is over 1000 nM.

Tested on in a further data set: not listed separately
The data set can be described thus: in vivo. The following applies: SD, rat, iv, 0.25 mg/kg. More on the design: species or system SD rats. The method, then: Intravenous injection: about 2 mg of Compound 11-5, Compound 11-6 and Compound 1-77 were accurately weighed out and added with appropriate amount of DMA, followed by vortex to a clean solution. An appropriate volume of 30% Solutol HS-15 aqueous solution and saline were added and vortexed, so that DMA: 30% Solutol HS-15: saline was 20:20:60 (v/v/v). The solution was filtered to give a 0.05 mg·mL^−1 pharmaceutical preparation. SD rats were given a single injection of 0.25 mg·kg^−1 of Compounds 11-5, 11-6 and 1-77 intravenously. 0.20 mL of blood was collected from the jugular vein before administration and 0.083 h, 0.25 h, 0.5 h, 1 h, 2 h, 4 h, 8 h, 12 h and 24 h after administration, and placed in an EDTA-K2 anticoagulation tube. 150 μL of whole blood was accurately pipetted immediately, and added into a test tube to which 450 μL of acetonitrile has been added to precipitate proteins, and the tube was vortexed, and placed on wet ice. It was stored in a −90˜−60° C. refrigerator for biological sample analysis. The concentration of the corresponding compound in the plasma of S-D rats was determined by LC-MS/MS analysis. The corresponding pharmacokinetic parameters were calculated using a non-compartmental model in Pharsight Phoenix 7.0.
`O=C1c2c(O)c(=O)ccn2N([C@@H]2c3ccccc3SCc3c2ccc(F)c3F)[C@@H]2COC3(CC3)CN12` [II-6] gave an AUC(0-t) of 276 ng·h/mL, a Vd of 3.12 L/kg, a clearance of 13.6 mL/min/kg and a half-life of 2.97 h.

The subject of a further data set is influenza virus A/PR/8/34 (H1N1). The experiment in a line: organism not typed. Format: cell-based. The following applies: 120 h; MDCK cells, A/PR/8/34 (H1N1), 5 days, CCK8; read-out: EC50.
Regarding `O=C1C2N(CC3CCCN13)C(=O)c1c(O)c(=O)ccn1N2[C@@H]1c2ccccc2SCc2c1ccc(F)c2F` (stereo partly shown) [II-101], the EC50 is 0.94 nM.
On the same count and under the same terms, then `O=C1c2c(O)c(=O)ccn2N([C@@H]2c3ccccc3SCc3c2ccc(F)c3F)CN1C1C2CC1C2F` (stereo partly shown) [Compound I-66], with 0.58 nM.
In the case of `O=C1c2c(O)c(=O)ccn2N([C@H]2c3ccccc3CSc3ccccc32)CN1C1CC2(CC2)C1` [Compound I-9], the EC50 was found to be 0.4 nM.
Take `C=C1CCN2C(=O)c3c(O)c(=O)ccn3N([C@@H]3c4ccccc4SCc4c3ccc(F)c4F)[C@@H]2C1` [II-65]: the EC50 was found to be 0.45 nM.
Take `O=C1c2c(O)c(=O)ccn2N([C@@H]2c3ccccc3SCc3c2ccc(F)c3F)[C@@H]2COC3(CC3)CN12` [II-6]: the EC50 was 0.26 nM.
On the same count and under the same terms, then `O=C1c2c(O)c(=O)ccn2N([C@@H]2c3ccccc3SCc3cccc(Cl)c32)CN1C12CC(C1)C2` [Compound I-89], with 0.17 nM.
For the compound `O=C1c2c(O)c(=O)ccn2N([C@@H]2c3ccccc3SCc3c2ccc(F)c3F)CN1C1CC2(CC2)C1` [Compound I-14], the EC50 was 0.32 nM.
As to `O=C1c2c(O)c(=O)ccn2N([C@@H]2c3ccccc3SCc3c2ccc(F)c3F)[C@@H]2C/C(=C/F)CCN12` [II-67], the EC50 is 0.48 nM.
Same read-out and setting: the same measure for `O=C1c2c(O)c(=O)ccn2N([C@@H]2c3ccccc3SCc3c2ccc(F)c3F)CN1CCSC1CC1` [Compound I-8]: 0.75 nM; for `O=C1c2c(O)c(=O)ccn2N([C@@H]2c3ccccc3SCc3c(F)cccc32)[C@@H]2COC3(CC3)CN12` [II-10]: 0.24 nM; for `O=C1c2c(O)c(=O)ccn2N([C@@H]2c3ccccc3SCc3c2ccc(F)c3F)CN1C1C2CC1C2` (stereo partly shown) [Compound I-65]: 0.37 nM.
Still for that read-out and setting: the same measure for `COCC1COC[C@@H]2N1C(=O)c1c(O)c(=O)ccn1N2[C@@H]1c2ccccc2SCc2c1ccc(F)c2F` (stereo partly shown) [II-8]: 0.47 nM; for `O=C1c2c(O)c(=O)ccn2N([C@H]2c3ccccc3CSc3ccccc32)CN1C1CC2(CCC2)C1` [Compound I-1]: 0.5 nM; for `O=C1c2c(O)c(=O)ccn2N([C@@H]2c3ccccc3SCc3c2ccc(F)c3F)CN1C1CC2(CCC2)C1` [Compound I-5]: 0.44 nM.

Staying with this data set, now noted: MDCK, 120 h.
`O=C1c2c(O)c(=O)ccn2N([C@@H]2c3ccccc3SCc3c(F)cccc32)[C@@H]2COCC3(CC3)N12` [II-9] returned a concentration giving a half-maximal response (EC50) of 0.28 nM.
In turn, `O=C1c2c(O)c(=O)ccn2N([C@H]2c3ccccc3CSc3ccccc32)[C@@H]2COCC3(CC3)N12` [II-1] returned an EC50 of 0.45 nM.
The compound `O=C1c2c(O)c(=O)ccn2N([C@@H]2c3ccccc3SCc3cccc(F)c32)[C@@H]2COCC3(CC3)N12` [II-17] came in with a half-maximal effective concentration (EC50) of 0.26 nM.
